For one experiment, the target named is T1, recombinant FKBP52 (Homo sapiens, UniProt Q02790).
T1 construct: other: QTFS, 18° C., unit not given; dissociation constant (kd) for FKBP52 by QTFS; other: QTFS; fused on or other part: probably GST at the N-terminus (pGEX-6p), as in b91 and the GST-alone control of b31
T1 sequence (Q02790 1-459): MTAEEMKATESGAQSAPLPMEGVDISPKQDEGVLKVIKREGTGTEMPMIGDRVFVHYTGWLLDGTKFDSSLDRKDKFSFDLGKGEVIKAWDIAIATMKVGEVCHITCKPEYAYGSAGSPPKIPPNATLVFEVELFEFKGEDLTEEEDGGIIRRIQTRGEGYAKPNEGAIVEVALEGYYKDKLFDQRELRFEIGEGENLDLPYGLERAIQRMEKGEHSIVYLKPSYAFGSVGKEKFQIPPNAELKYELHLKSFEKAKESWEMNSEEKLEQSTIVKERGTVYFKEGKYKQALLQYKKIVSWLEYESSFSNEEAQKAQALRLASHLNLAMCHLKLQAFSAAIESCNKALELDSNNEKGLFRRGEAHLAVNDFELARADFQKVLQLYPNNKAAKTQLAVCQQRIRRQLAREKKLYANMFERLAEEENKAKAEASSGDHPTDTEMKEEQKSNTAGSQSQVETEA
As to the kind of experiment: Tryptophan fluorescence (QTFS) binding to recombinant FKBP52.

The subject of a further experiment is Schwann cells. The experiment in a line: cDNA-array analysis of Schwann cell gene expression. The class given is cell-based, Sprague-Dawley rats. The method, then:
To generate primary Schwann cells, neonatal Sprague-Dawley rats were sacrificed by decapitation, and 2-cm segments (approximately) of sciatic nerve were excised and placed in ice-cold PBS. Following removal of the epineurium, the nerves were pooled and placed in Hank's balanced salt solution containing 0.1% trypsin for 30 min at 37° C. Subsequently, partially-dissociated cells were plated onto polylysine/laminin-coated tissue culture plates, and enriched Schwann cells were further purified by the activation of anti-Thy 1.1 monoclonal antibodies and complement, in order to lyse proliferating fibroblasts (Wu and Weinstein, “Isolation and Purification of Primary Schwann Cells”, in Current Protocols in Neuroscience, Crawley et al., eds. (New York, N.Y.: John Wiley & Sons, 1999). The Schwann cells were maintained in DMEM containing 10% FCS supplemented with 50 ng/ml GGF and 2 μg/ml forskolin. However, these latter compounds were removed 48 h prior to the addition of immunophilin ligands. For the Schwann cell/PC12 co-cultures, monolayers of Schwann cells were prepared and overlaid with pCX-expressing PC12 cells, and cultures were incubated in the presence of either 100 ng/ml NGF or 1 μg/ml GM-284 for 48 h.
To test the former hypothesis, the inventors starved Schwann cells of growth factor for 48 h, then treated the cells for either 4 h or 48 h with a 1-μM dose of GM-284. RNA was harvested from the treated cells and from control (vehicle-treated) Schwann cells, and then prepared for cDNA-array analysis. Experimental details of the preparation of the RNA, and the methods for conducting the hybridization, washing, and scanning, are posted at the following http website: //sequence.aecom.yu.edu/bioinf/funcgenomic.html.
Total RNA was isolated, and prepared for cDNA microarray analysis as described (Peng et al., Microarray analysis of global changes in gene expression during cardiac myocyte differentiation. Physiol. Genomics, 9(3):145-55, 2002).

In experiment [1] the test system is Erk phosphorylation in DRG neurons. As to the kind of experiment: Erk phosphorylation immunoblot in DRGs. The class given is cell-based, mice. The settings on record: 1 μM GM-284, 30 min or 4 h. The method, then: (A) DRGs were prepared and cultured as above, except that either the MEK1 inhibitor, PD 098059, or NGF-neutralizing antibodies were included in cultures treated with either NGF or GM-284. Maximal response was determined to be the extent of neurite outgrowth when DRGs were cultured in NGF alone (spotted bars) or in 1 μM GM-284 (striped bars). As indicated, DRGs were treated with either NGF or GM-284, in the presence of either 0.25 mg/ml anti-NGF neutralizing antibodies or PD 098059. […] DRGs were treated with 100 ng/ml NGF or 1 μM GM-284, for 30 min or 4 h, as indicated, and the detergent lysates were prepared and immunoblotted with anti-phospho-Erk monoclonal antibody. The p42 and p44 bands are indicated by arrowheads.
293T cells were lysed in ice-cold HNTG buffer (20 mM HEPES, pH 7.5; 150 mM NaCl; 10% glycerol; and 1% Triton X-100) containing 0.1 mM sodium molybdate, 1 mM sodium vanadate, 1 mM phenylmethylsulfonyl fluoride (PMSF), and 10 μg/ml aprotinin. After 10 min at 4° C., cleared lysates were subjected to SDS-PAGE and Western blot analysis using standard protocols. Blots were incubated with the indicated primary antibodies and the appropriate […] secondary antibodies, followed by detection using enhanced chemiluminescence (ECL) reagent (Renaissance, NEN).

Experiment [2] has as its system purified sensory neurons from DRG. The experiment in a line: Neurite outgrowth in purified (neuron-enriched) sensory neuron cultures. The class given is cell-based, E18 C57B1/6 mice. The conditions noted are these: 1 μM GM-284, 6 days. The method, then: To generate neuron-enriched DRG cultures, DRGs were isolated from embryonic (E18) C57B1/6 mice, and processed in dissection media containing Hank's CMF saline, with 0.05% collagenase and 0.25% trypsin, for 30 min at 37° C. Neurons were obtained by trituration of ganglia with fire-polished Pasteur pipettes of decreasing diameter. Thereafter, the cellular suspension was washed twice in Dulbecco's modified Eagle medium supplemented with 10% fetal calf serum and 2% glucose. Freshly triturated neurons were incubated in 10% FCS-DMEM supplemented with 5-fluorouracil (Sigma, F-0503) and uridine (Sigma, U3003) for 48 h to remove non-neuronal proliferating cells, in the presence of either 100 ng/ml NGF or 1 μM GM-284. After 48 h, cultures were continued with these agents, but without mitotic inhibitors, for an additional 6 days.
DRG explants are complex tissues, containing both Schwann cells and neurons. Accordingly, it is possible that GM-284 acts to promote neurite outgrowth directly, by acting on neurons, or indirectly, by acting on adjacent Schwann cells, which then act to promote neuritogenesis. To differentiate these possibilities, sensory neurons from DRG were purified as described (Wood et al., Studies of the initiation of myelination by Schwann cells. Ann. NY Acad. Sci., 605:1-14, 1990), and contaminating Schwann cells were removed by treatment of the cultures with anti-mitotic drugs.

pKd: −log10 of the molar value. Entries after “also recorded” stand apart in the source; their conditions may differ.

Experimental for recombinant FKBP52: Measurements were made with a Perkin-Elmer 760-40 fluorescence spectrophotometer, at an excitation wavelength of 290 nm (slit width of 2 nm) and an emission wavelength of 345 nm (slit width of 6 nm). A circulating water bath was used to maintain the sample temperature at 18° C., and a mini magnetic stirrer was used to mix the solution (0.3 mM, FKBP52 final concentration) in a 2.5-ml quartz fluorescence cuvette cell.
To obtain titration curves, immunophilin ligands from a stock solution of 0.25 mM were added at 0.2-0.5 μl increments, to achieve a final concentration of 4.0 μM in phosphate-buffered saline (PBS) containing 1 mM DTT. […] Non-linear regression curves were fitted using SigmaPlot and the following equation: F(x)=a+(X×b)/(Y+c), where X is the free ligand concentration, Y is the concentration of FKBP52, and c is the kd.

Turning to `CCC(C)(C)C(=O)C(=O)N1CCC[C@H]1c1nnc([C@@H]2CCCN2C(=O)C(=O)C(C)(C)CC)o1` [GM-284], the “disassociation constant (kd), binding affinity for recombinant FKBP52” value on recombinant FKBP52 (18° C., unit not given) was found to be 139±16.2. Besides, the pKd at recombinant FKBP52 (read-out: dissociation constant (kd) for FKBP52 by QTFS) was 6.86. In the experiment on Schwann cells (1 μM GM-284, 4 hours), the ESTs upregulated was found to be 15; the Known genes upregulated was determined as 11; the Selected upregulated genes entry was “Cytokeratin 19 and Fibrillin 2 (fbn2) and IFNγ inducible and CD14 and Estradiol dehydrogenase”; the Total upregulated genes amounted to 26. In addition, in the experiment on Schwann cells (1 μM GM-284, 48 hours), the ESTs upregulated amounted to 77, the Known genes upregulated is recorded as 32 and the Total upregulated genes stood at 109. For the same compound, the “Erk phosphorylation in DRG” value in experiment [1] is listed as “no activity on Erk phosphorylation; also recorded: fails to activate the ERK pathway”. Moreover, in experiment [2], the “neurite outgrowth in purified neuronal cultures” value was “complete failure to elaborate processes; also recorded: failed to promote axonogenesis; also recorded: no neurite outgrowth”.

Values taken from patent US20040266811A1, “Methods for inducing regeneration, remyelination, and hypermyelination of nervous tissue” (priority 2002, published 2004).
